Where “and” joins values, the source holds several entries; their conditions need not be identical. Equal values may be shown once. Each block holds one molecule with its values, some of them ahead of it.
Columns and labels:
TNF (L57F) = target: T1, TNF (L57F) (Homo sapiens, UniProt P01375, L133F); test: HEK reporter gene assay, L57F TNF; assay type: cell-based; conditions: 10 pM L57F TNF; HEK NFκΒ reporter
T1 construct: Human TNF (CID2043, UniProt P01375 residues 77–233); 6XHis-Smt3 (N, cleaved yes); host or cells: E. coli
Method: Stimulation of HEK-293 cells by TNF leads to activation of the NF-κB pathway. The HEK-Blue^TM CD40L SEAP (secreted embryonic alkaline phosphatase) reporter cell line used to determine TNF activity (InvivoGen, #hkb-CD40, cells were described as mycoplasma free when purchased and were tested using Mycoalert [Lonza] after each batch of assay vial preparation). Compounds were titrated in DMSO and pre-incubated with TNF at a concentration giving half maximal response (10 pM for human or 20 pM for mouse) or the anti-human TNFR1 agonist antibody (R&D Systems. #AF 225) for 1 h. Cells were added to the compound/stimulus mixture and further incubated for 18 h. SEAP was measured using the colorimetric substrate HEK-Blue Detect^TM or QUANTI-Blue^TM from InvivoGen. Percentage inhibitions for compound dilutions were calculated between a DMSO control and maximum inhibition (by excess anti-TNF biologic, or NF-κB inhibitor–TPCA-1 [Tocris #2559, R&D Systems]). The IC50 was determined as the point of inflexion between the fitted minimum and maximum of the compound dose response curve, calculated using 4PL fitted curve. Mean IC50s are reported as a mean of at least two experiments. Dose response curves for TNF and the anti-human TNFR1 agonist antibody are shown in Supplementary Fig. 9. […]
In this assay reduction is luminescence is due to cell killing by TNF and inhibition causes increased luminescence. […]

TNF [1] = target: T2, TNF (Homo sapiens, UniProt P01375); test: Biacore kinetics of binding; set-up: Human TNF (CID2043, UniProt P01375 residues 77–233); 6XHis-Smt3 (N, cleaved yes); host or cells: E. coli TOP10; conditions: SPR single-cycle, linked TNF with n-terminal HKH tag
Method: Surface plasmon resonance using a Biacore T100/T200 was used to measure the association rate constant (ka), the dissociation rate constant (kd) and the affinity (KD) of compounds. TNF (VCID 2043 Beryllium) was immobilised to approximately 5 kRU as described above and equilibrated for at least 5 h in HBS P + buffer with 5% DMSO. UCB-6876 was serially diluted from 187.5 µM, flowing over the immobilised TNF at 50 µL/min for 3 min before allowing full dissociation under flow for at least 6 min. […] […] The compounds were allowed to dissociate for 2 h under flow.
Target sequence in this assay (P01375 with tags, fused parts or gaps): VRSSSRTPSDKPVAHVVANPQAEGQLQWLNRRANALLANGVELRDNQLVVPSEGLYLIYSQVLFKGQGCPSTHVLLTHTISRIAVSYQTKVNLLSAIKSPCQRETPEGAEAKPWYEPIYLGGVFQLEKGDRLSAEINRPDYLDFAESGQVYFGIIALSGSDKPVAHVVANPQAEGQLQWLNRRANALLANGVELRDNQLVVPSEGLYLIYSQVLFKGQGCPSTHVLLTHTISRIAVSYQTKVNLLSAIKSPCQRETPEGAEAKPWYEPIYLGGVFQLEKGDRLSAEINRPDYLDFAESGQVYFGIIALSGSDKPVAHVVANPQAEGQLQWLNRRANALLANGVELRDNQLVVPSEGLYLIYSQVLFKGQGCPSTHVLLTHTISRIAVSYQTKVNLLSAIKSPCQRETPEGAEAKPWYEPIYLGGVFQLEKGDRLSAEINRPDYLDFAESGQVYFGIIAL

TNF [2] = target: T2, TNF; test: TNF reporter gene assay HEK-293, human TNF; assay type: cell-based; set-up: stabilise an asymmetrical form of the soluble TNF trimer; conditions: 10 pM wild-type TNF; HEK NFκΒ reporter
Method: Stimulation of HEK-293 cells by TNF leads to activation of the NF-κB pathway. The HEK-Blue^TM CD40L SEAP (secreted embryonic alkaline phosphatase) reporter cell line used to determine TNF activity (InvivoGen, #hkb-CD40, cells were described as mycoplasma free when purchased and were tested using Mycoalert [Lonza] after each batch of assay vial preparation). […] Cells were added to the compound/stimulus mixture and further incubated for 18 h. SEAP was measured using the colorimetric substrate HEK-Blue Detect^TM or QUANTI-Blue^TM from InvivoGen. […] The IC50 was determined as the point of inflexion between the fitted minimum and maximum of the compound dose response curve, calculated using 4PL fitted curve. Mean IC50s are reported as a mean of at least two experiments.
Target sequence in this assay (P01375 77-233 limits assumed): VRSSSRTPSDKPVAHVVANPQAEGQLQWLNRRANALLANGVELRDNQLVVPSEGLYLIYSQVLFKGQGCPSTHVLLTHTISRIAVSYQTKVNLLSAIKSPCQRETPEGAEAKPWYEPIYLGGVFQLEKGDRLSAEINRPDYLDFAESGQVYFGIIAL

TNF [3] = target: T2, TNF; test: Thermal denaturation assay of thermal stability; assay type: binding; set-up: stabilise an asymmetrical form of the soluble TNF trimer
Method: A fluorescence probed thermal denaturation assay was performed to assess the effect of the compounds on the thermal stability of TNF (or other members of the TNF family) as a measure of compound binding. The reaction mixture contained 5 µL of 30× SYPRO® Orange dye (Invitrogen) and 5 µL of TNF (at 1 mg/mL), 37.5 μL PBS, pH 7.4 and 2.5 μL of compound (at 2 mM in DMSO). The mixture (10 µL) was dispensed in quadruplicate into a 384 PCR optical well plate and was run on a 7900HT Fast Real-Time PCR System ([…]). The PCR System heating device was set at 20 °C to 99 °C with a ramp rate of 1.1 °C min^−1; fluorescence changes in the wells were monitored by a CCD device. The fluorescence intensity increase was plotted as a function of temperature and the Tm calculated as the midpoint of this denaturation curve (determined as the point of inflection).
Target sequence in this assay (P01375 77-233 limits assumed): as above

hTNF/hTNFR1 complex = target: T3, hTNF/hTNFR1 complex (Homo sapiens, UniProt P01375); test: Analytical size exclusion chromatography of TNF:TNFR1 stoichiometry; assay type: biochemical
T3 construct: stabilise an asymmetrical form of the soluble TNF trimer; host or cells: BV (baculovirus) for hTNFR1
Method: A stock of compound bound to human (h) TNF was prepared by pre-incubating hTNF (300 μM, molecular weight based on the homotrimer) overnight at 4 °C with UCB-5307 at a final concentration range from 90 μM to 690 μM, maintaining a constant DMSO concentration of 1%. The compound-bound hTNF was incubated for 1 h at 22 °C with hTNFR1 at a 3.2-fold molar excess over homotrimers (final concentrations: hTNFR1 240 μΜ, hTNF 75 µM). Identical samples were prepared with DMSO only, giving a final DMSO concentration of 0.25% for both sets of samples. Alternatively, a fully assembled hTNF/hTNFR1 complex (3 receptors per homotrimer) was formed by incubating hTNF with a 3.2-fold molar excess of hTNFR1 for 1 h at 22 °C. The TNF/TNFR1 complex was then incubated overnight at 4 °C with UCB-5307 at a final concentration range from 90 µM to 690 µM. Samples were subject to analytical size exclusion using HPLC. Injection volumes of 50 µL were separated on a TSK G3000SW L × I.D. 30 cm × 7.5 mm column (10 µm particle size) pre-equilibrated in 10 mM HEPES, pH 7.5, 150 mM NaCl.

TNF [4] = target: T2, TNF; test: Biacore SPR fragment binding to immobilised TNF; set-up: Human TNF (CID2043, UniProt P01375 residues 77–233); 6XHis-Smt3 (N, cleaved yes); host or cells: E. coli TOP10; conditions: SPR fragment screen; concentration-dependent response
Description: (§1) BIA (Biomolecular Interaction Analysis) uses SPR to measure the binding of compounds to a protein immobilised on a chip surface. For this purpose a Biacore A100/4000 (GE Healthcare) was used. A CM5 sensor was immobilised via amine coupling on flow cell 1 with human Fc antibody domain (10k response units; kRU) and TNFR-Fc captured (2.5 kRU), flow cell 2 TNF (11 kRU), flow cell 3 was left blank (for non-specific binding), flow cell 4 TNFR-Fc (10 kRU), and flow cell 5 goat anti-human Fc 16 kRU). The sensor surface was then equilibrated in HBS-P (10 mM HEPES pH 7.4, 0.15 M NaCl, 0.005% Surfactant P20, BIAcore, GE Healthcare) with 5% DMSO for at least 5 h. Compounds were diluted from 100 mM stocks into DMSO matched buffer and then flowed over the immobilised flow cells at a concentration of 250 µM at the maximum flow rate of 30 μL/min. Background subtraction binding curves were analysed using the Biacore A100 BIA evaluation software version 1.1 following standard procedures.
Target sequence in this assay (P01375 77-233): as the sequence (P01375 77-233 limits assumed) above

[5] = tested on: TNFR1 extracellular domain and control proteins; test: Biacore SPR binding to control surfaces; conditions: capture antibody plus TNFR1, capture antibody
Description: as §1

[6] = Dynamic light scattering (colloidal aggregation); assay type: physicochemical; conditions: 100 μM; no detergent; 25°C; n=5
Method: Dynamic light scattering (DLS) experiments have been performed with compounds […]
baseline control and positive control (miconazole at 100 μM) were included. The radius data […]
compound in the absence of detergent.
DLS data (Malvern Nano ZS). Each sample (150 μl) was measured 5 times in a low volume disposable sizing cuvette at 25°C using 173º non-invasive backscatter (NIBS). […]

mouse TNF = target: T4, mouse TNF (Mus musculus, UniProt P06804); test: Mouse TNF induced neutrophil recruitment in vivo; conditions: Etanercept 30 mg/kg i.v.; mouse TNF; individual mice
T4 construct: stabilise an asymmetrical form of the soluble TNF trimer
T4 sequence (P06804 80-235 limits assumed): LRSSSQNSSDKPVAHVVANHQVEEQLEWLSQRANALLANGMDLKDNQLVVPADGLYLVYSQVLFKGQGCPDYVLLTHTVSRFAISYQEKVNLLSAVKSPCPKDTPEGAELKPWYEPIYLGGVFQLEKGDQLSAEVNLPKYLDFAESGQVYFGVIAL
Method: All in vivo studies were reviewed by an internal Ethical Review Body (ERB) and conducted in accordance with the Animals (Scientific Procedures) Act 1986, EU Directive 2010/63/EU. […] Anti-TNFα biologics, CDP571[21] (10 mg/kg) and etanercept (30 mg/kg), diluted in PBS, were dosed intravenously prior to human and mouse TNF challenge. Two hours after the TNF challenge, mice were sacrificed and the peritoneal cavity lavaged with 3 mL of FACS buffer. An aliquot (0.3 mL) of lavage fluid was used to assess the number CD45^+GR1^+ cells by flow cytometry. Briefly, the cells were treated with ACK lysis buffer, washed and suspended in FACS buffer prior to staining with FITC anti-mouse CD45 and PE anti-mouse GR1. Data are shown as mean ± standard error of the number of CD45^+GR-1^+ cells. Statistical significance (*p < 0.05, **p < 0.01, ****p < 0.0001) was determined using one-way ANOVA with Dunnett’s multiple comparison test.

[7] = target: T5, Mouse TNF (mouse), P06804; test: native MS; human TNF pre-incubated (saturated) with UCB-6876, then mixed 1:1 with mouse TNF; 20 mM ammonium acetate, 4% DMSO in the compound stock; various time points; conditions: remark: other sources report otherwise
T5 chain: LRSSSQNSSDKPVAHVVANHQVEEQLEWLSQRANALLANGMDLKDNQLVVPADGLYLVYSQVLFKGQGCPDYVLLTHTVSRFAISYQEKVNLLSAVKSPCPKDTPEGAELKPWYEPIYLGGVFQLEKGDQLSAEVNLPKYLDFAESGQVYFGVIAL

[8] = target: T5, Mouse TNF (mouse), P06804; test: native MS; mouse and human TNF, each 20 µM in 20 mM ammonium acetate pH 7.4, mixed 1:1 and analysed at various time points; no compound; nanospray, Exactive Plus EMR; conditions: remark: other sources report otherwise

T3 sequence (P01375 77-233 limits assumed): as the sequence (P01375 77-233 limits assumed) above
T3 sequence (P19438 43-184 partner limits assumed): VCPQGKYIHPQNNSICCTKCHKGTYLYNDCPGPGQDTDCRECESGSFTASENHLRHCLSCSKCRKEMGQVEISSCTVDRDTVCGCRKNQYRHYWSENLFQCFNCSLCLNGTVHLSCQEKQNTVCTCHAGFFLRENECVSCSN
T1 sequence (P01375 77-233 L133F): as the sequence (P01375 77-233 limits assumed) above, with L57F counted along it

Molecule: Etanercept [reference compound]
CD45+ GR-1+ cells/mL in the peritoneal cavity (mouse TNF): 6123.9 cells/mL and 7203.0 cells/mL and 3131.9 cells/mL and 6069.0 cells/mL and 1965.3 cells/mL

B1: Mouse TNF, P06804 80-235 (ligand)
chain: LRSSSQNSSDKPVAHVVANHQVEEQLEWLSQRANALLANGMDLKDNQLVVPADGLYLVYSQVLFKGQGCPDYVLLTHTVSRFAISYQEKVNLLSAVKSPCPKDTPEGAELKPWYEPIYLGGVFQLEKGDQLSAEVNLPKYLDFAESGQVYFGVIAL
stoichiometry N [7]: 3
stoichiometry N [8]: 3

Further lines, with some results ahead:

inhibition of L57F TNF (TNF (L57F)): did not inhibit
kd (off-rate) (TNF [1]): 5.76e-05 s⁻¹
Kd (TNF [1]; read-out: KD): 9 nM
inhibition of wild-type TNF (TNF [2]): inhibited
Tm difference (hTNF + compound) - (hTNF+DMSO) (TNF [3]; DMSO 5%): 12.2 °C
Tm (mean ± SD) (TNF [3]; hTNF + DMSO (5%) + compound, n=4 replicates): 72.9 ± 0.6 °C
Tm1 Average (TNF [3]; inhouse hTNF 5% DMSO + compound, 4 wells): 72.9 °C
Unreviewed - Tm1 (TNF [3]; single wells, inhouse hTNF 5% DMSO + compound, listed as 1445307-000, in °C): 72.4 and 73.5 and 73.2
effect on preformed hTNF/hTNFR1 complex (hTNF/hTNFR1 complex; 90-690 µM compound, 3.2-fold excess hTNFR1): dislodging one of the receptors
Molecule: Cc1ccc(C)c(Cn2c(C(O)c3ccncc3)nc3ccccc32)c1 (stereo not shown) [UCB-5307]
number of TNFR1 bound per hTNF trimer, hTNF preloaded with compound (hTNF/hTNFR1 complex; 90-690 μM compound overnight, then 3.2-fold excess hTNFR1): dose-dependent shift from three receptors bound to two

binding to immobilised TNF (TNF [4]): bound to TNF
colloidal aggregation (DLS radius) [6]: no evidence of colloidal aggregation
Molecule: Cc1ccccc1Cn1c(CO)nc2ccccc21 [UCB-6786]
binding to TNFR1 and control proteins (selectivity) [5]: selectivity over the TNFR1 extracellular domain and control proteins
